Source: ChEMBL document CHEMBL3507680, “University of Dundee, Gates Library screen for HepG2 cell viability”

Assay: Human HepG2 cell viability assay in 384 well format
Assay type: toxicity, cell-based
Set-up: dose 125 nL, time 70.5 hour; cytotoxicity at 70.5 h: concentration not given beside the values
Conditions: HepG2 cells, read-out: Inhibition

SMILES	cytotoxicity at 70.5 h
CN1CCN(C(=O)c2cc(C#N)cn2C)c2ccccc2C1	-2.54%
N#Cc1csc(CNCCOc2ncccc2Cl)c1	8.52%
CCC1CCC(CNC(=O)c2c[nH]c(=O)c(Cl)c2)CC1 (stereo not drawn)	-9.94%
Cc1nc(-c2nnc[nH]2)sc1C(=O)N1CCCC1CC(C)(C)C (stereo not drawn)	-5.06%
Cc1csc(C(C)(C)NCc2ncc(-c3ccccc3)o2)n1	-7.99%
COCCOCC(=O)NCc1ccc(N(C)C)nc1	-5.23%
COCCNC(=O)NC1CCN(c2cnn(C)c2)C1 (stereo not drawn)	-4.09%
Cc1cc(C)cc(CNC(C)c2c(C)nn(C)c2C)c1 (stereo not drawn)	-13.1%
COCCSCC(=O)NCc1ccnc(N(C)C)c1	-8.31%
Cc1nccn1-c1ccc(C(C)NCCc2ccccn2)cc1 (stereo not drawn)	0.00833%
COc1ccc(S(=O)(=O)C(F)(F)F)cc1NC(=O)CSC	-1.98%
COCC(=O)Nc1cc(S(=O)(=O)C(F)(F)F)ccc1OC	2.14%
CN(Cc1c(F)cccc1Cl)C(=O)Nc1cnn(CC(N)=O)c1	6.9%
O=C(Cc1ccc(F)cc1)NS(=O)(=O)c1ccc(F)c(F)c1	-2.89%
COc1ccc(NCc2c[nH]nc2-c2cccnc2)cc1	8.67%
COc1ccsc1C(=O)NCCNc1ccccc1	-2.66%
COc1cc(C)sc1C(=O)NCCNc1ccccc1	11.2%
Cc1cccc(CC(=O)NS(=O)(=O)c2ccc(F)c(F)c2)c1	8.16%
Cc1nccn1-c1ccc(C(C)NCc2cccn2C)cc1 (stereo not drawn)	-4.2%
O=C1CCC(=O)N1CCN1CCN(c2cc(F)ccc2F)CC1	-3.59%
CCCS(=O)(=O)CCN1CCN(c2cc(F)ccc2F)CC1	2.83%
Cn1cc(C#N)cc1C(=O)Nc1ccc(CN2CCOCC2)cn1	-2.71%
Cn1cc(C(=O)Nc2ccc(CN3CCOCC3)cn2)cn1	-4.82%
COc1cccc(CCCNC(=O)N2CCC(O)(C(F)(F)F)C2)c1 (stereo not drawn)	-2.72%

SMILES	cytotoxicity at 70.5 h
c1csc(CCNC2CCc3ncnn3C2)c1 (stereo not drawn)	0.839%
COc1cccc(CC(=O)N2CCC(O)(C(F)(F)F)C2)c1 (stereo not drawn)	-4.06%
Cc1csc(CN(C)C(C)C(=O)N2CCc3ccccc3C2)n1 (stereo not drawn)	11.5%
O=C(CN1CCCC1c1nc(Cc2ccc(F)cc2)no1)NC1CC1 (stereo not drawn)	0.125%
O=C(CNC1CCc2ncnn2C1)N(Cc1cccs1)C1CC1 (stereo not drawn)	0.341%
c1ccc(-n2cncn2)c(CNCCn2cccn2)c1	10.2%
COCCCSc1ccc(NCc2scnc2C)cc1	-0.225%
CC(C)(CNC(=O)C1CCCCN1S(C)(=O)=O)N1CCOCC1 (stereo not drawn)	38%
O=c1c2sccc2ncn1CC(O)CN1CCOCC1 (stereo not drawn)	-10.3%
CC(C)c1ccc(OCCNC(=O)c2ccoc2)cc1	23.9%
CC(C)c1noc(CNc2cccc(-c3nnnn3C)c2)n1	-8.75%
CCC(=O)N1CCN(c2ccc(C(=O)OC)cc2)CC1C (stereo not drawn)	-0.474%
COCCNC(=O)CCNC(=O)c1ccc(N2CCC(C)=N2)cc1	-16%
Cc1cc(CN2CCN(C(=O)C3(C#N)CCCC3)CC2)on1	21%
CC1=NN(c2ccc(C(=O)OCCNC(=O)c3ccncc3)cc2)CC1	-2.48%
CC(NS(C)(=O)=O)c1nc(-c2ccc(Br)cc2)no1 (stereo not drawn)	-5.32%
CCC(C)(CNC(=O)c1ccon1)NC(=O)c1ccon1 (stereo not drawn)	-8.49%
Cc1cc(NC(=O)N2CCCC2CN2CCOCC2)nn1C (stereo not drawn)	-10.1%
N#Cc1ccc(C(=O)O)nc1/C=C/c1cccc(F)c1	-7.55%
N#Cc1ccc(C(=O)O)nc1/C=C/c1cccc(Br)c1	-4.7%
CCN(CC)c1ncc(CNC2CCc3ncnn3C2)s1 (stereo not drawn)	-5.42%
O=C(Nc1nnc(C(F)F)s1)NC(CCO)c1cccs1 (stereo not drawn)	32.8%
Cc1ccc(C(=O)Nc2ccc(N(C)C)nc2)n1C	3.75%
N#Cc1cccc(OCCN2CCCC2C(=O)NC2CC2)c1 (stereo not drawn)	4.05%

SMILES	cytotoxicity at 70.5 h
Cc1cc(C)n(-c2ccccc2NC(=O)NCCCN(C)S(C)(=O)=O)n1	5.58%
N#Cc1ccc(CN2C(=O)c3ccccc3CS2(=O)=O)cc1	-1.6%
O=C(NCc1cc2ccccc2[nH]1)C1CCCN(C(=O)N2CCCC2)C1 (stereo not drawn)	-3.92%
CCc1nc2n(n1)CC(Nc1ccnc(-c3ccccc3)n1)CC2 (stereo not drawn)	-3.97%
Cc1nc2n(n1)CC(Nc1nc(-c3ccccc3)no1)CC2 (stereo not drawn)	-0.185%
CC(C(=O)Nc1nccs1)N1CCc2nn(C)c(=O)cc2C1 (stereo not drawn)	20.7%
CCn1ncc2c1CCCC2NCc1ccc2c(c1)OCCO2 (stereo not drawn)	4.09%
CC(C)(C)n1ncc2c1CCCC2NCc1cccc(C(N)=O)c1 (stereo not drawn)	3.6%
CC(C)(C)n1ncc2c1CCCC2NCc1ccc2c(c1)OCCO2 (stereo not drawn)	29.2%
CC(C)(C)OC(=O)N1CCC(C(=O)NCc2cc3ccccc3[nH]2)C1 (stereo not drawn)	-2.83%
Fc1ccc2c(C3=CCN(Cc4nnc(C5CCC5)o4)CC3)c[nH]c2c1	2.23%
COc1ccc(C)cc1C(=O)NC1(C#N)CCOCC1	-2.79%
Cc1noc(CN(Cc2cccc(C#N)c2)Cc2ccco2)n1	0.0593%
Cc1nc(C(=O)N(C)CC2CC2)nn1-c1ccccc1C(C)C	36%
CC(O)(CNS(=O)(=O)Cc1ccon1)c1ccsc1 (stereo not drawn)	0.988%
CCN(C)S(=O)(=O)NCC(C)(O)c1ccsc1 (stereo not drawn)	-0.398%
CC(C)(C)n1ncc2c1CCCC2NCc1ccc2ncccc2c1 (stereo not drawn)	-4.24%
CC(C)(C)c1noc(CCC(=O)N2CCN(Cc3ccco3)CC2)n1	-0.998%
COC(=O)CCNC(=O)c1cccc(C(=O)N(C)c2ccccc2)c1	31.4%
Cc1nc(CNC2CCCN(c3cccnn3)C2)no1 (stereo not drawn)	22%
COC(=O)CNC(=O)c1cccc(C(=O)N(C)c2ccccc2)c1	30.5%
c1cncc(-c2noc(CNC3CCCN(c4cccnn4)C3)n2)c1 (stereo not drawn)	24.9%
OC1CCCN(Cc2ccc(F)c3cccnc23)C1 (stereo not drawn)	-0.871%
CC(C)(C)c1ccc(C2(C(=O)NCCS(C)(=O)=O)CC2)cc1	-6.58%

SMILES	cytotoxicity at 70.5 h
Cc1nc2c(c(C)c1CC(=O)NC(C)c1ccccc1)c(=O)[nH]n2C (stereo not drawn)	-2.23%
Cc1cc(CNC(=O)Nc2cccc(COCCOC(C)C)c2)no1	-0.772%
Cc1ccc(-c2ccc(C(=O)NCCS(N)(=O)=O)c(F)c2)cc1	-3.69%
Cc1ccc(CN(C)C(=O)CN2CCCCC2Cn2cncn2)cc1 (stereo not drawn)	22.7%
Cc1cc(CNC(=O)NC(C)c2ccccc2)no1 (stereo not drawn)	0.144%
Cc1ccc(-c2ccc(C(=O)NCCC(=O)N(C)C)c(F)c2)cc1	-6.22%
CCc1nc(CN2CCCN(c3ncnc4sccc34)CC2)no1	16.3%
CCCNC(=O)CNc1ccc2c(c1)N(C(=O)OC(C)(C)C)CCC2	2.81%
CN(Cc1cccs1)C(=O)CN1CCCCC1Cn1cncn1 (stereo not drawn)	23.2%
CNc1nc(CNC(=O)Nc2cccc(COCCOC(C)C)c2)cs1	2.29%
Cc1ncccc1C(=O)NC1(c2cccc(F)c2)CCOCC1	-3.77%
CC(C)C1CN(C(=O)c2ccc3nccnc3c2)CCS1 (stereo not drawn)	-7.38%
CC(C)OCCOCc1cccc(NC(=O)NCc2cnn(C)c2)c1	-0.106%
Cc1ccccc1CN(C)C(=O)CN1CCCCC1Cn1cncn1 (stereo not drawn)	-7.31%
COc1cc(NC(=O)c2ccc(F)cc2Cl)c(C(=O)N(C)C)cc1OC	-8.85%
COc1cc(NC(=O)c2cc(Cl)ccc2F)c(C(=O)N(C)C)cc1OC	-15.4%
CC(CN1CCOCC1)NC(=O)NCc1ccoc1 (stereo not drawn)	4.07%
COc1ccc(-c2nnc(SC(C)C(=O)NC3CCCC3)[nH]2)c(OC)c1 (stereo not drawn)	42.2%
COc1ccc(-c2nnc(SC(C)C(N)=O)[nH]2)c(OC)c1 (stereo not drawn)	-8.05%
CS(=O)(=O)N1CCN(Cc2csc(-c3ncccn3)n2)CC1	15.5%
Cc1nc(N2CCCC(N3CCCC3)C2)c2cnn(C)c2n1 (stereo not drawn)	-5.42%
Cc1cccc(-c2c[nH]c(C3CCCN3C(=O)C3CCOCC3)n2)c1 (stereo not drawn)	-10.3%
COc1c(Br)cccc1CCNC(=O)c1ccon1	-10.8%
FC(F)(F)c1ccnc(N2CCCCCC2)c1	-10.6%

SMILES	cytotoxicity at 70.5 h
CC1CN(C(=O)c2ccnc(OCCN(C)C)c2)c2ccccc21 (stereo not drawn)	-14.8%
CCOC(C(=O)N1CCn2c(CC)nnc2C1)c1ccccc1 (stereo not drawn)	-11.9%
Cc1ccc(CNCc2cccc3cccnc23)c(OC2CCOC2)c1 (stereo not drawn)	12.2%
CC(=O)N1CCC(NC(=O)N2CCCC2c2ccsc2)CC1 (stereo not drawn)	6.84%
O=C(Cc1cc2c(cc1Br)OCCO2)NC1CCS(=O)(=O)C1 (stereo not drawn)	7.44%
CN(C)CCN(Cc1ccccn1)C(=O)Nc1cccc(F)c1	-9.47%
CN(Cc1ccncc1)C(=O)c1ccc2c(c1O)OC(C)(C)C2	-5.32%
CN(CCNC(=O)N1CCCC1)C(=O)OC(C)(C)C	-11.5%
N#CCCN(Cc1ccccn1)C(=O)Nc1cccc(F)c1	-6.04%
CS(=O)(=O)CCCOc1cccc(-n2ccnc2)c1	-2.41%
CN(C)S(=O)(=O)CCCOc1cccc(-n2ccnc2)c1	-3.93%
Nc1nccnc1C(=O)N(Cc1ccccc1O)CC1CCCO1 (stereo not drawn)	-13.9%
Cc1nnc(CN(C)C(=O)C(CC(C)C)N2CCCCC2=O)n1C (stereo not drawn)	-5.01%
Cc1oc(-c2ccccc2)nc1C(=O)NC1=NCCS1	-0.24%
Cc1ccc2c(c1)N(C(=O)C1CCCOC1)CCC2 (stereo not drawn)	-4.9%
Cc1ccc(CNCc2cccc3cn[nH]c23)c(OC2CCOC2)c1 (stereo not drawn)	3.6%
Cc1nc(C(NC(=O)CC(F)(F)F)c2ccc(Cl)cc2)no1 (stereo not drawn)	-2.37%
COCC(=O)NC(c1ccc(Cl)cc1)c1noc(C)n1 (stereo not drawn)	-2.49%
O=C(NS(=O)(=O)c1cnn(-c2ccccc2F)c1)c1ccoc1	9.38%
N#CCCN(Cc1ccccn1)C(=O)Nc1cccnc1	-7.42%
CCOC1CCN(C(=O)NCCN(C)C(=O)OC(C)(C)C)CC1	-3.79%
CC1CCN(CCCNS(=O)(=O)c2cc(F)cc(F)c2)CC1	48.4%
